Data on 7 molecules can be found in patent publication US20250339547A1, “MET BCL-XL INHIBITOR ANTIBODY-DRUG CONJUGATES AND METHODS OF USE THEREOF” (Novartis AG, priority 2022, published 2025).

The subject of data set [1] is T-ALL (T-cell Acute Lymphoblastic Leukemia) and different types of solid tumors. The note with it: cited from earlier work.
Data set [2] relates to pancreatic cancer cell lines. Nature of the data set: Pancreatic cancer cell line panel of Example 10 (CTG 120h). The format is cell-based. The note with it: pancreatic cancer cell lines of Table 16, single agents.
Experimental: Cell lines were cultured in the media described above at 37° C. in a humidified atmosphere containing 5% CO2. […] When in 1:1 combination, both the combining partner (Paclitaxel, Trametinib or Gemcitabine) and the mAb or ADC were serially diluted (9 concentrations each, triplicates). Effect on cell viability was assessed after 5 days of incubation at 37° C./5% CO2 by quantification of cellular ATP levels using CellTiter-Glo reagent (Promega Ref: G7571) at 75 μL reagent/well. All the conditions were tested in triplicates. Luminescence was quantified on a multipurpose plate reader. IC50s were calculated using standard four-parametric curve fitting. […] Two independent experiments were performed (N1 and N2).
Data set [3] concerns Hs766T. Nature of the data set: Pancreatic cancer cell line viability, single agent or 1:1 combination (CTG 120h), Example 10. It is filed as cell-based. How it is done:
(§1) Cell lines were cultured in the media described above at 37° C. in a humidified atmosphere containing 5% CO2. Cells were seeded in 96 well clear bottom plates (96 well clear-bottom, white, Corning reference 3903) and exposed to the mAbs or ADCs as single agents or in 1:1 combination with Paclitaxel, Trametinib or Gemcitabine. When in 1:1 combination, both the combining partner (Paclitaxel, Trametinib or Gemcitabine) and the mAb or ADC were serially diluted (9 concentrations each, triplicates). Effect on cell viability was assessed after 5 days of incubation at 37° C./5% CO2 by quantification of cellular ATP levels using CellTiter-Glo reagent (Promega Ref: G7571) at 75 μL reagent/well. All the conditions were tested in triplicates. Luminescence was quantified on a multipurpose plate reader. IC50s were calculated using standard four-parametric curve fitting. IC50 is defined as the compound concentration at which the CTG signal is reduced to 50% of that measured for the control. Two independent experiments were performed (N1 and N2).

Data set [4] has as its system BxPC-3. The data set is described as above. The format is cell-based. The note with it: Homo sapiens, BXPC-3, 120 h, BxPC-3, CTG 120 h. Here is the method:
as §1

The test system of data set [5] is AsPC-1. The description is as above. The format is cell-based. The note with it: Homo sapiens, ASPC1, 120 h, AsPC-1, CTG 120 h. Here is the method: as §1
Data set [6] deals with KP-4. Described as above. The note with it: Homo sapiens, KP-4, 120 h, KP-4, CTG 120 h. It is filed as cell-based. Here is the method: as §1
Data set [7] relates to Panc 10.05. The data set is described as above. It is filed as cell-based. The note with it: Homo sapiens, Panc1005, 120 h, Panc 10.05, CTG 120 h. How it is done: as §1
Data set [8] relates to allogeneic T- and B-cell responses. The note with it: after skin transplantation; cited from earlier work.
Data set [9] concerns arthritis and lupus. The note with it: mice, animal models of arthritis and lupus; cited from earlier work.
For data set [10], the system named is allogeneic T-cell. The note with it: in vitro; cited from earlier work.
For data set [11], the system named is lymphocyte proliferation. The note with it: in vitro; cited from earlier work.
For data set [12], the system named is LU65. The data set is described as follows: Lung cancer cell line viability, single agent or 1:1 combination (CTG 120h), Example 7. The format is cell-based. The note with it: LU65, CTG 120 h. How it is done: (§2) Cell lines were cultured in the media described above at 37° C. in a humidified atmosphere containing 5% CO2. Cells were seeded in 96 well clear bottom plates (96 well clear-bottom, white, Corning reference 3903) and exposed to the mAbs, mAbs mixture, ADCs or ADCs mixture as single agents or in 1:1 combination with Paclitaxel. When in 1:1 combination, both the combining partner (Paclitaxel) and the mAb, mAb mixture, ADC or ADC mixture were serially diluted (9 concentrations each, triplicates). Effect on cell viability was assessed after 5 days of incubation at 37° C./5% CO2 by quantification of cellular ATP levels using CellTiter-Glo reagent (Promega Ref: G7571) at 75 μL reagent/well. All the conditions were tested in triplicates. Luminescence was quantified on a multipurpose plate reader. IC50s were calculated using standard four-parametric curve fitting. IC50 is defined as the compound concentration at which the CTG signal is reduced to 50% of that measured for the control. Two independent experiments were performed (N1 and N2).

Data set [13] relates to HCC827. The description is as above. The note with it: HCC827, CTG 120 h. It is filed as cell-based. Here is the method:
as §2

In data set [14] the test system is NCI-H1975. The data set is described as above. It is filed as cell-based. The note with it: NCI-H1975, CTG 120 h. How it is done: as §2
The subject of data set [15] is CALU1. Described as above. The note with it: CALU1, CTG 120 h. The format is cell-based. Here is the method:
as §2

In data set [16] the test system is HCC366. The description is as above. The note with it: HCC366, CTG 120 h. The format is cell-based. How it is done:
as §2

Data set [17] relates to NCI-H441. Described as above. The format is cell-based. The note with it: NCI-H441, CTG 120 h. How it is done:
as §2

The test system of data set [18] is NCI-H1838. The description is as above. The note with it: NCI-H1838, CTG 120 h. The format is cell-based. How it is done: as §2
Data set [19] concerns HCC4006. Described as above. It is filed as cell-based. The note with it: HCC4006, CTG 120 h. Here is the method: as §2
The test system of data set [20] is HCC78. The data set is described as above. It is filed as cell-based. The note with it: HCC78, CTG 120 h. Here is the method: as §2
For data set [21], the system named is lymphoid malignancies. The note with it: cited from earlier work.
Data set [22] deals with hematological malignancies and solid tumors. The note with it: several hematological malignancies and solid tumors; cited from earlier work.

Non-standard residues stand in square brackets, D forms with d. Residues, ends and D or L forms follow the SMILES beside them. *: point of attachment. Dolaproine = CO[C@@H]([C@@H]1CCCN1)[C@@H](C)C(=O)O; Dil = CC[C@H](C)[C@H](NC)[C@@H](CC(=O)O)OC; X1 = C[C@@H](N*)[C@@H](O)c1ccccc1; NMeV = CN[C@H](C(=O)O)C(C)C

For the molecule `Cc1c(-c2ccc(N3CCc4cccc(C(=O)Nc5nc6ccccc6s5)c4C3)nc2C(=O)O)cnn1CC12CC3CC(CC(C3)C1)C2` [A-1331852], in [1], the “in vivo activity in pre-clinical models” value was “exhibited in vivo activity”.

As for `CN(C)CC#Cc1ccc(OCCCc2sc(N3CCc4cccc(C(=O)Nc5nc6ccccc6s5)c4C3)nc2C(=O)O)c(F)c1` [A-1155463], the “in vivo activity in pre-clinical models” value in data set [1] was “exhibited in vivo activity”.

For orientation: IC50 means the concentration that inhibits the measured activity by half. Regarding `Nc1ccn([C@@H]2O[C@H](CO)[C@@H](O)C2(F)F)c(=O)n1` [Gemcitabine, gemcitabine], in data set [2], the “effect on the viability” value is listed as “induced dose dependent decrease in cell viability with measurable IC50 for most of the cell lines”. Besides, the IC50 was over 30000 nM in [3] (mean); over 30000 nM in data set [3] (n1); over 30000 nM in [3] (n2); 13 nM in data set [4] (mean); 10.7 nM in data set [4] (n1); 15.3 nM in data set [4] (n2). Also, the 50% inhibitory concentration (IC50) in data set [5] (mean) is 241 nM; in data set [5] (n1) it was 406 nM; in data set [5] (n2), 75.2 nM; in [6] (mean), 10.9 nM; in [6] (n1), 9.74 nM; in [6] (n2), 12 nM. Besides, the IC50 is 68.3 nM in data set [7] (mean), 58.8 nM in [7] (n1) and 77.9 nM in data set [7] (n2).

As to `CN(C)CC[C@H](CSc1ccccc1)Nc1ccc(S(=O)(=O)NC(=O)c2ccc(N3CCN(Cc4ccccc4-c4ccc(Cl)cc4)CC3)cc2)cc1[N+](=O)[O-]` [ABT-737], the “allogeneic T- and B-cell responses” value in data set [8] is on record as “inhibited”. Moreover, the disease severity result in data set [9] is on record as “significant decrease in disease severity”. The “allogeneic T-cell activation, proliferation, and cytotoxicity” value in data set [10] is recorded as “prevented”. The “inhibition of lymphocyte proliferation” value in [11] is “potent inhibition”.

`CC[C@H](C)[C@@H]([C@@H](CC(=O)N1CCC[C@H]1[C@H](OC)[C@@H](C)C(=O)N[C@H](C)[C@@H](O)c1ccccc1)OC)N(C)C(=O)[C@@H](NC(=O)[C@@H](NC)C(C)C)C(C)C` [MMAE, monomethyl auristatin E] (H-[NMeV]V[Dil][Dolaproine]-X1): the IC50 in data set [12] (Mean) turned out to be 0.83 nM; in data set [12] (n1), 0.7 nM; in data set [12] (n2), 0.96 nM; in data set [13] (Mean), 1.3 nM; in [13] (n1) it was 1.46 nM; in [13] (n2), 1.15 nM. Moreover, the IC50 in data set [14] (Mean) was determined as 0.25 nM; in data set [14] (n1) it was 0.25 nM; in data set [15] (Mean) it was 1.01 nM; in [15] (n1) it was 0.64 nM; in data set [15] (n2), 1.37 nM; in data set [16] (Mean), 0.645 nM. In addition, the IC50 is 0.53 nM in data set [16] (n1); 0.76 nM in data set [16] (n2); 0.38 nM in [17] (Mean); 0.4 nM in [17] (n1); 0.36 nM in data set [17] (n2); 60.1 nM in data set [18] (Mean). The half-maximal inhibitory concentration (IC50) in [18] (n1) amounted to 88.2 nM; in data set [18] (n2), 32 nM; in data set [19] (Mean) it was 0.19 nM; in [19] (n1), 0.12 nM; in [19] (n2) it was 0.26 nM; in data set [20] (Mean), 0.57 nM. Further, the IC50 in data set [20] (n1) is 0.54 nM; in data set [20] (n2) it was 0.6 nM.

For the molecule `CC1(C)CCC(c2ccc(Cl)cc2)=C(CN2CCN(c3ccc(C(=O)NS(=O)(=O)c4ccc(N[C@H](CCN5CCOCC5)CSc5ccccc5)c(S(=O)(=O)C(F)(F)F)c4)cc3)CC2)C1` [ABT-263, navitoclax], the “antitumor activity in clinical studies” value in data set [21] is on record as “objective antitumor activity”. Further, the “activity in pre-clinical models” value in data set [22] is recorded as “has shown activity”.

Take `CC(=O)Nc1cccc(-n2c(=O)n(C3CC3)c(=O)c3c(Nc4ccc(I)cc4F)n(C)c(=O)c(C)c32)c1` [Trametinib, N-(3-{3-cyclopropyl-5-[(2-fluoro-4-iodophenyl)amino]-6,8-dimethyl-2,4,7-trioxo-3,4,6,7-tetrahydropyrido[4,3-d]pyrimidin-1(2H)-yl}phenyl)acetamide]: in data set [2], the “effect on the viability” value is given as “induced dose dependent decrease in cell viability with measurable IC50 for most of the cell lines”. Also, the IC50 in data set [3] (mean) turned out to be 2.82 nM; in [3] (n1) it was 2.53 nM; in data set [3] (n2) it was 3.1 nM; in [4] (mean), 11.7 nM; in data set [4] (n1), 8.21 nM; in data set [4] (n2), 15.2 nM. Also, the concentration for half-maximal inhibition (IC50) in data set [5] (mean) is 9.81 nM; in data set [5] (n1), 9.01 nM; in data set [5] (n2) it was 10.6 nM; in data set [6] (mean), 1660 nM; in [6] (n1), 620 nM; in data set [6] (n2), 2710 nM. In addition, the results for the IC50 in data set [7] (mean), in [7] (n1) and in data set [7] (n2) were 57.5 nM, 32.4 nM and 82.6 nM, respectively.
